Results reported in patent publication US20060269935A1, “Genetic predictor for clinical use of drugs used in the treatment of neurological conditions” (UCL Biomedica PLC, priority 2005, published 2006).
Like-named read-outs stand apart in the source and are kept apart here.

Experiments:
[1] = system: patients with a diagnosis of epilepsy; conditions: human, in vivo
From the text: In this study we have considered the known functional alleles *2 and *3 at the CYP2C9 gene, and the putatively functional 3435C>T polymorphism in the ABCB1 gene. As no common functional variants are known for SCN1A, we used a haplotype tagging strategy (Weale et al., Am J. Hum. Genet. 73, 551-565, 2003). […] For carbamazepine, we related variation in both SCN1A and ABCB1 to maximum dose in 425 patients. Finally, we tested for association with presence or absence of ADRs. […] In most, but not all cases the maximum dose used here will also be the maintenance dose, since starting doses tend to be lower than what is required (see discussion below).
The study was approved by the relevant institutional Ethics Committees. Patients who self-identified, or were determined by the treating physician, as being of North Western European origin with a diagnosis of epilepsy were recruited from the specialised epilepsy clinic of the National Hospital for Neurology and Neurosurgery after written informed consent was obtained. Extensive clinical data were obtained and stored in a computerized database. […]
The following clinical details were recorded whenever available: date when phenytoin/carbamazepine was started and stopped, maximum dosage reached, response and occurrence of ADRs. […]

CYP2C9*2 = CYP2C9*2 (Homo sapiens, UniProt P11712, R144C); conditions: in vitro expression; cited from earlier work
CYP2C9 = CYP2C9 (Homo sapiens, UniProt P11712); conditions: estimated; cited from earlier work
[2] = cited from earlier work; for Serum concentrations of phenytoin: single dose, healthy volunteers

SMILES | Average dose range across genotypes [1] | Reduction in phenytoin clearance compared to *1 (CYP2C9*2) | Share of phenytoin inactivation for which CYP2C9 is responsible (CYP2C9) | Serum concentrations of phenytoin ([2]; *2 carriers) | Maximal elimination rates ([2]; *3 carriers compared with *1/1 patients) | Serum concentrations of phenytoin ([2]; *3 carriers)
NC(=O)N1c2ccccc2C=Cc2ccccc21 [carbamazepine, 5H-dibenz[b,f]azepine-5-carboxamide] | 230 mg | – | – | – | – | –
O=C1NC(=O)C(c2ccccc2)(c2ccccc2)N1 [phenytoin, 5,5-diphenylhydantoin] | 127 mg | 29% reduction in | up to 90% | *2 carriers have increased serum | *3 carriers have significantly lower | patients(33, 34) and increased serum
